From US20200000752A1, “Method for Treating Epilepsy” (Vanderbilt University, priority 2016, published 2020)
“Also recorded” adds a separate entry of the source.

Legend:
Scn1a^+/− mice = settings: for Number SWDs: SWDs over 1 sec, 30 min after PTZ 50 mg/kg, n=2, celastrol 0.3 mg/kg intermittent (8th day of drug holiday), diazepam 0.3 mg/kg, stiripentol 150 mg/kg, saline 21
CYP 2C9 = CYP 2C9 (Homo sapiens, UniProt P11712); assay: biochemical
CYP 2C19 [1] = target: T1, CYP 2C19 (Homo sapiens, UniProt P33261)
T1 sequence (P33261 whole entry): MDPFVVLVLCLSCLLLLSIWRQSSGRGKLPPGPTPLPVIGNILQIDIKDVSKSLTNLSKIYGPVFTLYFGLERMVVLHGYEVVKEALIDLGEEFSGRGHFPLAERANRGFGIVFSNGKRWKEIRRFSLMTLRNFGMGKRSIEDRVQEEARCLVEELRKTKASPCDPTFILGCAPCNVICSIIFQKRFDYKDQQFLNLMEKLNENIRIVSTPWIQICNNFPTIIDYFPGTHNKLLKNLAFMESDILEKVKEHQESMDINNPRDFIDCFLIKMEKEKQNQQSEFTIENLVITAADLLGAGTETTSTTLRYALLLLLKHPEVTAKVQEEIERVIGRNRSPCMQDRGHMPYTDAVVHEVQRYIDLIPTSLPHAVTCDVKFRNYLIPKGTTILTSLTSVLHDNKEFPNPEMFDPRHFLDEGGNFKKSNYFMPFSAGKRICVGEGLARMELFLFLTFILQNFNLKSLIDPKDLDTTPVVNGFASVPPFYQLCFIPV

CYP 2C19 [2] = target: T1, CYP 2C19; assay: biochemical
[3] = test system: cytochrome P450 enzymes (CYPs); settings: cited from earlier work
CYP 1A2 [4] = target: T2, CYP 1A2 (Homo sapiens, UniProt P05177); assay: biochemical
T2 sequence (P05177 whole entry): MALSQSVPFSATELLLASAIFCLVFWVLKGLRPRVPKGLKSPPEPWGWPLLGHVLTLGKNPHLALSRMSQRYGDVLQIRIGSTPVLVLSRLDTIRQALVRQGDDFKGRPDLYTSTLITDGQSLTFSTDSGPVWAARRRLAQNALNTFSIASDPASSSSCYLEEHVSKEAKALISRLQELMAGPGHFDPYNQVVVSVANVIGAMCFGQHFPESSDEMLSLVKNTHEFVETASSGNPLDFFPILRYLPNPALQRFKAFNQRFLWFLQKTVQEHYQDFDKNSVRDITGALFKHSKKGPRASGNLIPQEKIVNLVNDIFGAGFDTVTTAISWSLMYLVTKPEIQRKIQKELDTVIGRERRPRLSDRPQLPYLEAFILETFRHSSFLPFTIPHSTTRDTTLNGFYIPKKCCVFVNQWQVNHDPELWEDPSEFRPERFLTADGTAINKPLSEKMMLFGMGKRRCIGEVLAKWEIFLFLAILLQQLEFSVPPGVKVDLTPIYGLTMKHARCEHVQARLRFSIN

CYP 2D6 = CYP 2D6 (Homo sapiens, UniProt P10635); assay: biochemical
Sequence of CYP 2D6 (P10635 whole entry): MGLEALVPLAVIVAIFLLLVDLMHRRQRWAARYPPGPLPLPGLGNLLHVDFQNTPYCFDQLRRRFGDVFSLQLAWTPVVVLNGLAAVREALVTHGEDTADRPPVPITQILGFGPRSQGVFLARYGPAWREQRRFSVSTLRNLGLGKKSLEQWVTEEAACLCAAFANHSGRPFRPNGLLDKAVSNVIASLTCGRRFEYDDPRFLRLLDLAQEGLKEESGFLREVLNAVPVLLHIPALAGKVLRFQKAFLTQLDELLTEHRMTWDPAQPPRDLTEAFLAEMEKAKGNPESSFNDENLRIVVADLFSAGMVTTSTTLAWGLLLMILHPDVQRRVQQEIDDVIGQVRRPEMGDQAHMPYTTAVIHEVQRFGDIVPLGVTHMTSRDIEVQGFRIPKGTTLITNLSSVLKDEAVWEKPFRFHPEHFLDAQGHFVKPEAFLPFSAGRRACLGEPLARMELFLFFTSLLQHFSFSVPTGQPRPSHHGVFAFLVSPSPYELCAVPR

CYP 1A2 [5] = target: T2, CYP 1A2; assay: CYP inhibition, 1A2
CYP 2B6 = CYP 2B6 (Homo sapiens, UniProt P20813); assay: biochemical
Sequence of CYP 2B6 (P20813 whole entry): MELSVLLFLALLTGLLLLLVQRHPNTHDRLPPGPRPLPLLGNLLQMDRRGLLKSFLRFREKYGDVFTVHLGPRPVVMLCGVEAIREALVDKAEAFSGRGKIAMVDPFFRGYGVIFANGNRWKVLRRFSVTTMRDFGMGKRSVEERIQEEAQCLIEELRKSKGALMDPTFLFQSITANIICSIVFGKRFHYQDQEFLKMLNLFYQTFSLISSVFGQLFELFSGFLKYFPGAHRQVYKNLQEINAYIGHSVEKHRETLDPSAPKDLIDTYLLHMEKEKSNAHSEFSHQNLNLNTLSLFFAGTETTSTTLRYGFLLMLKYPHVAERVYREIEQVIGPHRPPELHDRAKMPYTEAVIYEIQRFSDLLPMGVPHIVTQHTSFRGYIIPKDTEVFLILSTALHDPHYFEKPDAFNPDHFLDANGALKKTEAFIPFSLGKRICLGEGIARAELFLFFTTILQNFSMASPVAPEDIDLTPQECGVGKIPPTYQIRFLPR

CYP 2C8 = CYP 2C8 (Homo sapiens, UniProt P10632); assay: biochemical
Sequence of CYP 2C8 (P10632 whole entry): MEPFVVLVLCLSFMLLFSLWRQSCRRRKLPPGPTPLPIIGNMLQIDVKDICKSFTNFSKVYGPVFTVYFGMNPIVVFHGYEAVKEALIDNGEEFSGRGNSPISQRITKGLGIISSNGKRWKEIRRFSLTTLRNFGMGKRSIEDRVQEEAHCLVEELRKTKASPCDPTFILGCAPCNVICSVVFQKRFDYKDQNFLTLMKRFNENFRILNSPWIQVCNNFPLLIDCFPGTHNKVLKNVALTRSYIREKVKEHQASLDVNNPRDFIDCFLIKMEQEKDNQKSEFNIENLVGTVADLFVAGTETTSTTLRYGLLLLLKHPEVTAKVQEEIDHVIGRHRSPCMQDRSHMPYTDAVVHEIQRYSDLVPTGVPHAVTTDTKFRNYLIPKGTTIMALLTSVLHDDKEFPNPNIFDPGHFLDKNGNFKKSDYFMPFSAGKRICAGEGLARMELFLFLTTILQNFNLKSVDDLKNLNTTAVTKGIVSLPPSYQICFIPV

MDCKII cells = assay: MDCKII bidirectional assay; format: in vitro ADME
Excerpt: MDCKII bidirectional assay was run in collaboration with Dr. Shaun Stauffer in Vanderbilt Institute of Chemical Biology (VICB) synthesis core who is a consultant on this project.

Sequence of CYP 2C9 (P11712 whole entry): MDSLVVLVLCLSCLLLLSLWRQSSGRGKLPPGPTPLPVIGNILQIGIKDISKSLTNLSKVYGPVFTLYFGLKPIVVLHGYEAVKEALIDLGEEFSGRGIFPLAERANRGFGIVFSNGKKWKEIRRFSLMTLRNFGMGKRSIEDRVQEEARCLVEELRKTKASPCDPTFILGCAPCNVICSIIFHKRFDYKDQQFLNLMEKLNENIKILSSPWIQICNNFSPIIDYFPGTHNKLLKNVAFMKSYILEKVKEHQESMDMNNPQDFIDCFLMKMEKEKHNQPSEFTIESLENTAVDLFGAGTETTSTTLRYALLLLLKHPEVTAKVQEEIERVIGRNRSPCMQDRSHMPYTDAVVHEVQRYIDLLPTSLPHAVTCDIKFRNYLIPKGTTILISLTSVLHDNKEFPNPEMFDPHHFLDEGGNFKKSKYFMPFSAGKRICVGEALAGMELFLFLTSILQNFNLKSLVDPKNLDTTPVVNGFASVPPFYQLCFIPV

Structure (SMILES)	Number SWDs (Scn1a^+/− mice)	IC50 (CYP 2C9) [µM]	inhibition of 2C19, in words (CYP 2C19 [1])	IC50 (CYP 2C19 [2]) [µM]	CYP inhibition as reported in the literature [3]	IC50 (CYP 1A2 [4]) [µM]	IC50 (CYP 2D6) [µM]	inhibition of 1A2, in words (CYP 1A2 [5])	IC50 (CYP 2B6) [µM]	IC50 (CYP 2C8) [µM]	appearance and mortality (Scn1a^+/− mice; mouse, in vivo, 300 mg/kg)	permeability in MDCK II bidirectional assay, in words (MDCKII cells)
CN1C(=O)CN=C(c2ccccc2)c2cc(Cl)ccc21 [Diazepam]	8											
CC(C)(C)C(O)/C=C/c1ccc2c(c1)OCO2 (stereo not shown) [Stiripentol]	11	> 10	potent inhibitor; also recorded: very potent inhibitor	1.84	inhibit CYPs including 1A2, 2C9, 2C19, 2D6 and 3A4	1.26	> 10	potent inhibitor; also recorded: very potent inhibitor	8.82	> 10	appeared lethargic and had increased mortality	
COc1cc(/C=C/C(=O)CC(=O)/C=C/c2ccc(O)c(OC)c2)ccc1O [curcumin, reference compound]												impermeable
